Laboratory results as given in patent US20250002460A1, “SORTILIN INHIBITORS” (SORTINA PHARMA AB, priority 2021, published 2025).
Read-outs that look alike come from different tables or passages of the source.

Experiments:
[1] = test system: MDA-MB-231 breast cancer cell line; assay: Secondary sphere formation assay in MDA-MB-231; type: cell-based; conditions: 48 hours; for progranulin induced secondary sphere formation: MDA-MB-231, in combination with 500 nM progranulin; for baseline sphere formation, compound used alone: MDA-MB-231, without progranulin
Protocol: (§1) C-terminal Progranulin (progranulin) (Casio, peptide sequence: […], SEQ ID NO: 5) were reconstituted in sterile PBS upon delivery, aliquoted and stored at −20° C. Working stock concentrations were achieved by dilution in culture media. […] 5% CO2 and 21% O2 before performing the primary followed by secondary sphere formation assay.
(§2) The sphere formation assay was performed as described previously (Mammary Gland Biol Neoplasia, 2012, 17(2): 111-117). Briefly, single cell suspensions were obtained following treatment with respective sortilin inhibitors SI1, SI5, SI8, SI25, SI32, SI39, SI51 and SI62 of the invention and seeded in phenol red-free DMEM/F-12 (Gibco®, Life Technologies), supplemented with 1% B27 supplement (Fisher Scientific, Invitrogen), 1% P/S and 20 ng/ml EGF (BD Biosciences) onto non-adherent polyhema-coated plates. After cultivation for five days, single cell suspensions were obtained from the primary spheres and seeded again in phenol red-free DMEM/F-12 supplemented with 1% B27 supplement, 1% P/S and 20 ng/ml EGF onto non-adherent polyhema-coated plates for 5-7 days. Subsequently, spheres greater than 50 μm in diameter were counted manually in the microscope.

human sortilin (sSORT) = biological target: T1, human sortilin (sSORT) (Homo sapiens, UniProt Q99523); assay: Neurotensin competitive fluorescence polarization binding assay (FPA); conditions: 100 nM sSORT, 10 nM Neurotensin-Ahx-FITC, 1 h room temperature
T1 sequence (Q99523 78-756 limits assumed): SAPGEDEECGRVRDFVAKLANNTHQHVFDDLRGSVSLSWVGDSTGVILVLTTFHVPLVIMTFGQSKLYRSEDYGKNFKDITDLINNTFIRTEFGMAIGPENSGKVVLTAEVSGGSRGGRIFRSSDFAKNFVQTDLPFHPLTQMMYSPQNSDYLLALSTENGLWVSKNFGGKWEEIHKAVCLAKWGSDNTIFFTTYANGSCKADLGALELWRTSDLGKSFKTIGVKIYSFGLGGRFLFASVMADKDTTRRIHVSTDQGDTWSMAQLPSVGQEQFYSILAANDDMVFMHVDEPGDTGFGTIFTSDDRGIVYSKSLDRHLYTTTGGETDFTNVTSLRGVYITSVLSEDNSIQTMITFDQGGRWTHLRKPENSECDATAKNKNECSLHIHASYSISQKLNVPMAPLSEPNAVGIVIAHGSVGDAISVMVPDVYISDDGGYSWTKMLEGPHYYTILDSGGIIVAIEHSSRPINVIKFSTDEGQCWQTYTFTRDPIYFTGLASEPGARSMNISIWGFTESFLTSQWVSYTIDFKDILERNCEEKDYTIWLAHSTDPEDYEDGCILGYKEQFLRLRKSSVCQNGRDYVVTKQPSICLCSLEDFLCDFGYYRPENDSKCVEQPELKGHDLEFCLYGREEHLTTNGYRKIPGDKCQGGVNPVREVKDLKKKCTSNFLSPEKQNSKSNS
Protocol: Fresh 0.1% bovine serum albumin (BSA) was added to the assay buffer to obtain the final concentration: 50 mM HEPES, pH 7.4; 100 mM NaCl; 2.0 mM CaCl2; 0.1% BSA; 0.1% TWEEN® 20. The sortilin inhibitors of the invention and reference compounds (see Table 1) analyzed in the screen and neurotensin (used as an assay control) were serially diluted in ten different concentrations in assay buffer. In each well of a Nunc® MaxiSorp™ 384-well plate (Sigma Aldrich), 100 nM sSORT was mixed with pre-diluted sortilin inhibitors and 10 nM Neurotensin-Ahx-FITC in assay buffer adjusted to contain 1% DMSO in a final volume of 20 μl. The plate was then briefly centrifuged prior to 1 h incubation at room temperature in the dark.

MDA-MB-231 xenograft = MDA-MB-231 xenograft in vivo model, metastasis assessment; parameters: species or system NOD SCID gamma mice; conditions: compared to vehicle control; RC3 5-50 μg/day/mouse in drinking water for 21 days
Protocol: Luciferase tagged MDA-MB-231 cells were injected at a concentration of 0.2×10^6 cells subcutaneously into two sites of the flank of NOD SCID gamma mice (Taconic, Denmark). Cells were prepared in a 60% mixture of matrigel (growth factor reduced, BD Bioscience) and 40% complete media. The size of the tumors were determined by calliper measurement of the subcutaneous tumor mass two times per week and tumor volume was calculated according to the formula volume=(length×(width)^2/2). Assessments of metastasis were performed using the IVIS® whole body imager (PerkinElmer) based on luciferase expression from stably transfected cell lines.

[2] = test system: colon cancer cell line HT-29; assay: Sphere formation assay in HT-29; type: cell-based; conditions: HT-29, FIG. 5
Protocol: as §1, §2

[3] = test system: melanoma cell line SK-MEL-30; assay: Sphere formation assay in SK-MEL-30; type: cell-based; conditions: SK-MEL-30, FIG. 6
Protocol: as §1, §2

[4] = mean IC50 values for sortilin inhibitors, IC50 (nM)

| Compound | progranulin induced secondary sphere formation [1] | baseline sphere formation, compound used alone [1] | IC50 (human sortilin (sSORT); [4]) | also measured |
| --- | --- | --- | --- | --- |
| Cc1nc(N(C)C)ncc1C(=O)NC(/C=C/C(C)(C)C)C(=O)O (racemic) [SI1, (E)-2-[2-(dimethylamino)-4-methyl-5-pyrimidinylcarbonylamino]-5,5-dimethyl-3-hexenoic acid] | reduced sphere formation | reduced baseline sphere formation | 59 nM | – |
| CC(C)(C)/C=C/C(NC(=O)c1ccc(Oc2ccccc2)nc1)C(=O)O (racemic) [SI5, (E)-5,5-dimethyl-2-(6-phenoxynicotinoylamino)-3-hexenoic acid] | reduced sphere formation | reduced baseline sphere formation | 17 nM | lung metastasis / metastasis formation (MDA-MB-231 xenograft): reduced metastasis formation; colon cancer cell sphere formation [2]: reduced |
| Cc1cccc(NC(=O)c2ccc(C(F)(F)F)cc2C(=O)O)n1 [RC3, 2-(N-6-Methyl-2-pyridylcarbamoyl)-5-(trifluoromethyl)benzoic acid, reference compound] | reduced sphere formation | increased sphere formation | – | lung metastasis / metastasis formation (MDA-MB-231 xenograft): induced lung metastasis |
| CC(C)(C)/C=C/C(NC(=O)c1cc(Cl)c[nH]1)C(=O)O (stereo not shown) [SI8, (E)-2-(4-chloro-2-pyrrolylcarbonylamino)-5,5-dimethyl-3-hexenoic acid] | reduced sphere formation | reduced baseline sphere formation | 43 nM | – |
| CC(C)(C)/C=C/C(NC(=O)c1cccc(-n2ccnc2)c1)C(=O)O (stereo not shown) [SI25, (E)-5,5-dimethyl-2[m-(1-imidazolyl)benzoylamino]-3-hexenoic acid] | – | reduced baseline sphere formation | 31 nM | – |
| CC(C)(C)/C=C/C(NC(=O)c1cc(Cl)cs1)C(=O)O (stereo not shown) [SI32, (E)-2-(4-chloro-2-thienylcarbonylamino)-5,5-dimethyl-3-hexenoic acid] | – | reduced baseline sphere formation | 52 nM | – |
| CC(C)(C)/C=C/C(NC(=O)c1ccc(OCc2ccccc2)nc1)C(=O)O (stereo not shown) [SI39, (E)-2-[6-(benzyloxy)nicotinoylamino]-5,5-dimethyl-3-hexenoic acid] | – | reduced baseline sphere formation | 65 nM | – |
| CC(C)(C)/C=C/C(NC(=O)c1ccc(-c2cccs2)cc1)C(=O)O (stereo not shown) [SI51, (E)-5,5-dimethyl-2-[p-(2-thienyl)benzoylamino]-3-hexenoic acid] | – | reduced baseline sphere formation | 80 nM | – |
| Cn1nc(-c2cccnc2)cc1C(=O)NC(/C=C/C(C)(C)C)C(=O)O (stereo not shown) [SI59, (E)-5,5-dimethyl-2-[1-methyl-3-(3-pyridyl)-5-pyrazolylcarbonylamino]-3-hexenoic acid] | – | – | 316 nM | – |
| Cn1nc(C(=O)NC(/C=C/C(C)(C)C)C(=O)O)cc1-c1ccc(Cl)c(Cl)c1 (stereo not shown) [SI61, (E)-2-[5-(3,4-dichlorophenyl)-1-methyl-3-pyrazolylcarbonylamino]-5,5-dimethyl-3-hexenoic acid] | – | – | 117 nM | – |
| CC(C)(C)/C=C/C(NC(=O)c1cc(Cl)c(Cl)s1)C(=O)O (stereo not shown) [SI62, (E)-2-(4,5-dichloro-2-thienylcarbonylamino)-5,5-dimethyl-3-hexenoic acid] | – | reduced baseline sphere formation | 61 nM | melanoma cancer cell sphere formation [3]: reduced |
| (E)-2-(2-isopropyl-4-methyl-5-pyrimidinylcarbonylamino)-5,5-dimethyl-3-hexenoic acid [SI49] | – | – | – | IC50 (human sortilin (sSORT); read-out: mean IC50 values for sortilin inhibitors, IC50): 68 nM |
